Among the data in US20040147561A1, “Pyrid-2-one derivatives and methods of use” (priority 2002, published 2004) are melting point values, retold here.

Where a name gives a salt, the structure may show the parent alone. Some results are limits rather than exact numbers.

As usually defined, the melting point is the temperature of the solid-liquid transition. `COCc1ccc(-c2csc(-c3ccncc3)n2)c(=O)[nH]1` [Example 70, 6-(Methoxymethyl)-3-(2-(4-pyridinyl)-1,3-thiazol-4-yl)-2(1H)-pyridinone]: the melting point lay within 249 to 254 °C.
With `CCOC(=O)c1cc(-c2csc(-c3ccnc(NCc4ccccc4)c3)n2)c(=O)[nH]c1C` [Example 48, Ethyl 2-methyl-6-oxo-5-(2-(2-((phenylmethyl)amino)-4-pyridinyl)-1,3-thiazol-4-yl)-1,6-dihydro-3-pyridinecarboxylate], the melting point was 290 °C (dec.).
Regarding `CCOC(=O)c1cc(-c2csc(-c3ccnc(NCC4CC4)c3)n2)c(=O)[nH]c1C` (as salt: HCl) [Example 61, Ethyl 5-{2-[2-(cyclopropylmethyl-amino)-pyridin-4-yl]-thiazol-4-yl}-2-methyl-6-oxo-1,6-dihydro-3-pyridinecarboxylate], the melting point is greater than 260 °C.
As to `CCOC(=O)c1cc(-c2csc(CS(=O)(=O)C(C)(C)C)n2)c(=O)[nH]c1C` [Example 38, Ethyl 5-(2-{[(tert-butyl)sulfonyl]methyl}(1,3-thiazol-4-yl))-2-methyl-6-oxo-1,6-dihydro-3-pyridinecarboxylate], the melting point was 250 °C (dec.).
Regarding `CCOC(=O)c1cc(-c2csc(CS(C)(=O)=O)n2)c(=O)[nH]c1C` [Example 43, Ethyl 5-(2-{[(methyl)sulfonyl]methyl}(1,3-thiazol-4-yl))-2-methyl-6-oxo-1,6-dihydro-3-pyridinecarboxylate], the melting point is 230 °C (dec.).
In turn, `Cc1[nH]c(=O)c(-c2csc(-c3ccnc(NCc4ccccn4)c3)n2)cc1C(=O)NCc1ccccn1` [Example 88, 2-Methyl-6-oxo-N-(2-pyridinylmethyl)-5-(2-(2-((2-pyridinylmethyl)amino)-4-pyridinyl)-1,3-thiazol-4-yl)-1,6-dihydro-3-pyridinecarboxamide] displayed a melting point greater than 260 °C.
Turning to `CCOC(=O)c1cc(-c2csc(-c3ccnc(N(C)C)c3)n2)c(=O)[nH]c1C(C)C` (as salt: hydrochloride) [Example 93, Ethyl 5-[2-(dimethylamino-pyridin-4-yl)-thiazol-4-yl]-2-isopropyl-6-oxo-1,6-dihydro-3-pyridinecarboxylate], the melting point was greater than 230 °C.
As for `CCOC(=O)c1cc(-c2csc(-c3ccnc(N4CCCCC4)c3)n2)c(=O)[nH]c1C` [Example 45, Ethyl 2-methyl-6-oxo-5-(2-(2-(1-piperidinyl)-4-pyridinyl)-1,3-thiazol-4-yl)-1,6-dihydro-3-pyridinecarboxylate], the melting point is 260 °C (dec.).
As to `CCOC(=O)c1cc(-c2csc(-c3ccc(OC)cc3)n2)c(=O)[nH]c1C` [Example 41, Ethyl 2-methyl-6-oxo-5-{2-[4-methoxyphenyl](1,3-thiazol-4-yl)}-1,6-dihydro-3-pyridinecarboxylate], the melting point is 240 °C (dec.).
Turning to `CCOC(=O)c1cc(-c2csc(-c3ccnc(NCc4ccccn4)c3)n2)c(=O)[nH]c1C` [Example 90, Ethyl 2-methyl-6-oxo-5-(2-(2-((2-pyridinylmethyl)amino)-4-pyridinyl)-1,3-thiazol-4-yl)-1,6-dihydro-3-pyridinecarboxylate], the melting point is 270 °C (dec.).
With `CCCCNc1cc(-c2nc(-c3cc(C(=O)OCC)c(C)[nH]c3=O)cs2)ccn1` (as salt: HCl) [Example 56, Ethyl 5-[2-(2-butylamino-pyridin-4-yl)-thiazol-4-yl]-2-methyl-6-oxo-1,6-dihydro-3-pyridinecarboxylate], the melting point is 230 °C (dec.).
For the compound `O=c1[nH]cc(Oc2ccccc2)cc1-c1csc(-c2ccncc2)n1` (as salt: salt) [Example 71, 5-Phenoxy-3-(2-(4-pyridinyl)-1,3-thiazol-4-yl)-2(1H)-pyridinone], the melting point was in the range of 243 to 245 °C.
For the compound `CCOC(=O)c1cc(-c2csc(-c3ccnc(NC)c3)n2)c(=O)[nH]c1C(C)C` (as salt: HCl) [Example 94, Ethyl 5-[2-(methylamino-pyridin-4-yl)-thiazol-4-yl]-2-isopropyl-6-oxo-1,6-dihydro-3-pyridinecarboxylate], the melting point was greater than 230 °C.
As to `CCOC(=O)c1cc(-c2csc(-c3ccnc(CC)c3)n2)c(=O)[nH]c1C` [Example 29], the melting point is 270 °C (dec.).
Under `CCOC(=O)c1cc(-c2csc(CSc3ccccc3)n2)c(=O)[nH]c1C` [Example 28, Ethyl 2-methyl-6-oxo-5-{2-(phenylthiomethyl)(1,3-thiazol-4-yl)}-1,6-dihydro-3-pyridinecarboxylate] stands 260 °C (dec.); under `CCOC(=O)c1cc(-c2csc(-c3csc(C)n3)n2)c(=O)[nH]c1C` [Example 36], 195 °C (dec.); under `CCNCCNC(=O)c1cc(-c2csc(-c3ccnc(NCCNCC)c3)n2)c(=O)[nH]c1C` [Example 66], greater than 260 °C.
Regarding `CCOC(=O)c1cc(-c2csc(N(C)S(=O)(=O)c3ccccc3)n2)c(=O)[nH]c1C` (as salt: salt) [Example 68, Ethyl 2-methyl-5-{2-[methyl(phenylsulfonyl)amino](1,3-thiazol-4-yl)}-6-oxo-1,6-dihydro-3-pyridinecarboxylate], the melting point fell in the range of 231 to 234 °C.
As to `CCOC(=O)c1cc(-c2csc(-c3ccnc(NCC(C)C)c3)n2)c(=O)[nH]c1C` [Example 46, Ethyl 2-methyl-5-(2-(2-((2-methylpropyl)amino)-4-pyridinyl)-1,3-thiazol-4-yl)-6-oxo-1,6-dihydro-3-pyridinecarboxylate], the melting point was 260 °C (dec.).
Take `CCOC(=O)c1cc(-c2csc(-c3ccccc3)n2)c(=O)[nH]c1C` [Example 33, Ethyl 2-methyl-6-oxo-5-{2-phenyl(1,3-thiazol-4-yl)}-1,6-dihydro-3-pyridinecarboxylate]: the melting point was 260 °C (dec.).
In the case of `CCOC(=O)c1cc(-c2csc(-c3c(Cl)cccc3Cl)n2)c(=O)[nH]c1C` [Example 35, Ethyl 5-[2-(2,6-dichlorophenyl)(1,3-thiazol-4-yl)]2-methyl-6-oxo-1,6-dihydro-3-pyridinecarboxylate], the melting point was 260 °C (dec.).
Regarding `CCOC(=O)c1cc(-c2csc(CCn3cccc(C(F)(F)F)c3=O)n2)c(=O)[nH]c1C` [Example 51, Ethyl 2-methyl-6-oxo-5-(2-(2-(2-oxo-3-(trifluoromethyl)-1(2H)-pyridinyl)ethyl)-1,3-thiazol-4-yl)-1,6-dihydro-3-pyridinecarboxylate], the melting point is 250 °C (dec.).
Under `CCOC(=O)c1cc(-c2csc(-c3ccnc(NCCNC(C)=O)c3)n2)c(=O)[nH]c1C` (as salt: HCl) [Example 58] stands 270 °C (dec.).
`CCOC(=O)c1cc(-c2csc(CS(=O)(=O)c3ccc(Cl)cc3)n2)c(=O)[nH]c1C` [Example 25]: the melting point was 300 °C (dec.).
The result for `CCOC(=O)c1cc(-c2csc(-c3cccs3)n2)c(=O)[nH]c1C` [Example 27] reads 230 °C (dec.); that for `CCOC(=O)c1cc(-c2csc(-c3ccsc3)n2)c(=O)[nH]c1C` [Example 31, Ethyl 2-methyl-6-oxo-5-{2-[3-thienyl](1,3-thiazol-4-yl)}-1,6-dihydro-3-pyridinecarboxylate], 230 °C (dec.).
Under `CCOC(=O)c1cc(-c2csc(-c3ccnc(NCc4ccco4)c3)n2)c(=O)[nH]c1C` (as salt: HCl) [Example 53, Ethyl 5-(2-(2-[(fur-2-ylmethyl)-amino]-pyridin-4-yl}-thiazol-4-yl)-2-methyl-6-oxo-1,6-dihydro-3-pyridinecarboxylate] stands 260 °C (dec.).
Under `CCOC(=O)c1cc(-c2csc(-c3ccnc(NCc4ccc(OC)cc4)c3)n2)c(=O)[nH]c1C` [Example 64, Ehtyl 5-{2-[2-(4-Methoxy-benzyamino)-pyridin-4-yl]-thiazol-4-yl}-2-methyl-6-oxo-1,6-dihydro-3-pyridinecarboxylate] stands greater than 260 °C; under `CCOC(=O)c1cc(-c2csc(-c3ccc(F)cc3)n2)c(=O)[nH]c1C` [Example 34, Ethyl 2-methyl-6-oxo-5-{2-[4-fluorophenyl](1,3-thiazol-4-yl)}-1,6-dihydro-3-pyridinecarboxylate], 260 °C (dec.); under `CC(=O)NCCNc1cc(-c2nc(-c3ccc(C)[nH]c3=O)cs2)ccn1` [Example 59, N-(2-{4-[4-(6-Methyl-2-oxo-1,6-dihydropyridin-3-yl)-thiazol-2-yl]-pyridin-2-ylamino}-ethyl)-acetamide], 230 °C (dec.).
In the case of `CCOC(=O)c1cc(-c2csc(CS(=O)(=O)Cc3ccc(F)cc3)n2)c(=O)[nH]c1C` [Example 26, Ethyl 5-[2-({[(4-fluorophenyl)methyl]sulfonyl}mthyl)(1,3-thiazol-4-yl)]-2-methyl-6-oxo-1,6-dihydro-3-pyridinecarboxylate], the melting point is 300 °C (dec.).
`COc1ccc(CNC(=O)c2cc(-c3csc(-c4ccnc(NCc5ccc(OC)cc5)c4)n3)c(=O)[nH]c2C)cc1` (as salt: HCl) [Example 63, 5-{2-[2-(4-Methoxy-benzyamino)-pyridin-4-yl]-thiazol-4-yl}-2-methyl-6-oxo-1,6-dihydropyridine-3-carboxylic acid 4-methoxy-benzylamide]: the melting point was 280 °C (dec.).
Regarding `CCOC(=O)c1cc(-c2csc(-c3ccnc(NC)c3)n2)c(=O)[nH]c1C` [Example 83, Ethyl 2-methyl-5-(2-(2-(methylamino)-4-pyridinyl)-1,3-thiazol-4-yl)-6-oxo-1,6-dihydro-3-pyridinecarboxylate], the melting point is 270 °C (dec.).
`Cc1[nH]c(=O)c(-c2csc(-c3ccnc(NCC4CC4)c3)n2)cc1C(=O)NCC1CC1` (as salt: HCl) [Example 60, N-(Cyclopropylmethyl)-5-(2-(2-((cyclopropylmethyl)amino)-4-pyridinyl)-1,3-thiazol-4-yl)-2-methyl-6-oxo-1,6-dihydro-3-pyridinecarboxamide]: the melting point was greater than 260 °C.
The result for `CCOC(=O)c1cc(-c2csc(-c3sccc3CS(=O)(=O)c3ccc(Cl)cc3)n2)c(=O)[nH]c1C` [Example 44] reads 300 °C (dec.).
